Values after ≈ are worked out from the molar mass of the structure shown.
Assay: Compound solubility in water
Assay type: physicochemical

Row | Compound | solubility [µg/mL] | Compound Solubility in Water [µg/mL]
1 | Cc1cc(-c2cccnc2C#N)nc2c(C(=O)N[C@@H](C3CC3)C(F)(F)F)cnn12 [III-366] | 1.1 (≈ 2.75 µM) | 
2 | COc1ccc(-c2cc(C)n3ncc(C(=O)NC(C)C(F)(F)F)c3n2)cn1 (stereo not shown) [III-271] | 2.3 (≈ 6.06 µM) | 
3 | COc1c(C#N)cccc1-c1cc(C)n2ncc(C(=O)NC(C)C(F)(F)F)c2n1 (stereo not shown) [III-142] | 2.2 (≈ 5.45 µM) | 
4 | COCc1cc(-c2cccc(F)c2)nc2c(C(=O)NC(C)(C)C3CC3)cnn12 [III-74] | 0.8 (≈ 2.09 µM) | 
5 | Cc1cc(N2CCN(C(C)C)C2=O)nc2c(C(=O)N[C@@H](C3CC3)C(F)(F)F)cnn12 [III-326] | 21 (≈ 49.5 µM) | 
6 | CCc1cc(-c2ccccn2)n2ncc(C(=O)NC(C)C3CC3)c2n1 (stereo not shown) [III-48] | 19.8 (≈ 59 µM) | 
7 | Cc1cc(-c2cccc(C#N)c2)nc2c(C(=O)NC(C)(C)C3CC3)cnn12 [III-71] | 0.5 (≈ 1.39 µM) | 
8 | COCOc1cccc(-c2cc(C)n3ncc(C(=O)N[C@@H](C4CC4)C(F)(F)F)c3n2)n1 [III-384] | 0.1 (≈ 0.23 µM) | 
9 | Cc1cc(-c2cccc(-c3ncon3)c2)nc2c(C(=O)NC(C3CC3)C(F)(F)F)cnn12 (stereo not shown) [III-176] | 0.2 (≈ 0.452 µM) | 
10 | Cc1cc(-c2ccc(F)cc2)nc2c(C(=O)N[C@@H](C)C(F)(F)F)cnn12 [III-360] | 0.7 (≈ 1.91 µM) | 
11 | Cc1cc(N2CCN(C(C)C)C2=O)nc2c(C(=O)NC(C)(C)C(F)(F)F)cnn12 [III-231] | 3 (≈ 7.27 µM) | 
12 | Cc1cc(-c2cccc(Cl)n2)nc2c(C(=O)NC(C)C(F)(F)F)cnn12 (stereo not shown) [III-234] | 0.2 (≈ 0.521 µM) | 
13 | Cc1cc(-c2sccc2C#N)nc2c(C(=O)N[C@H](C)C3CC3)cnn12 [III-302] | 0.5 (≈ 1.42 µM) | 
14 | Cc1cc(-c2cc(C)n3ncc(C(=O)N[C@H](C)C(F)(F)F)c3n2)co1 [III-338] | 0.2 (≈ 0.568 µM) | 
15 | Cc1cc(N2CCCC(F)(F)C2)nc2c(C(=O)NC(C3CC3)C(F)(F)F)cnn12 (stereo not shown) [III-66] | 0.3 (≈ 0.719 µM) | 
16 | Cc1cc(-c2ccc(F)cc2)nc2c(C(=O)N[C@H](C)C(F)(F)F)cnn12 [III-359] | 0.7 (≈ 1.91 µM) | 
17 | Cc1cc(-c2ccccn2)n2ncc(C(=O)N[C@@H](C)C3CC3)c2n1 [III-25] | 22.5 (≈ 70 µM) | 
18 | Cc1cc(-c2ccc(Cl)nc2)nc2c(C(=O)NC(C3CC3)C(F)(F)F)cnn12 (stereo not shown) [III-116] | 1 (≈ 2.44 µM) | 
19 | CCC(NC(=O)c1cnn2c(C)cc(-c3cccnc3)nc12)C(F)(F)F (stereo not shown) [III-42] | 15.1 (≈ 41.6 µM) | 
20 | Cc1cc(C)n2ncc(C(=O)NC(C3CC3)C(F)(F)F)c2n1 (stereo not shown) [III-9] | 18 (≈ 57.6 µM) | 
21 | Cc1cc(N2CCN(C(C)C)C2=O)nc2c(C(=O)NC(C)C(F)(F)F)cnn12 (stereo not shown) [III-227] | 9.4 (≈ 23.6 µM) | 
22 | Cc1cc(-c2ccccn2)nc2c(C(=O)NC(C3CC3)C(F)(F)F)cnn12 (stereo not shown) [III-36] | 0.4 (≈ 1.07 µM) | 
23 | Cc1cc(C)n2ncc(C(=O)N[C@H](C)C3CCCCC3)c2n1 [III-3] | 8.7 (≈ 29 µM) | 
24 | Cc1cnc(-c2cc(C)n3ncc(C(=O)NC(C4CC4)C(F)(F)F)c3n2)o1 (stereo not shown) [III-253] | 0.7 (≈ 1.85 µM) | 
25 | Cc1ncc(-c2cc(C)n3ncc(C(=O)N[C@H](C4CC4)C(F)(F)F)c3n2)cc1F [III-380] | 0.3 (≈ 0.736 µM) | 
26 | Cc1cc(-c2cccc(F)c2C#N)nc2c(C(=O)N[C@@H](C)C3CC3)cnn12 [III-398] | 0.2 (≈ 0.55 µM) | 

Row | Compound | solubility [µg/mL] | Compound Solubility in Water [µg/mL]
27 | C#CC(C)(C)NC(=O)c1cnn2c(C)cc(-c3cccc(F)c3)nc12 [III-75] | 0.6 (≈ 1.78 µM) | 
28 | Cc1cc(N2CCCC(F)(F)C2)nc2c(C(=O)N[C@H](C3CC3)C(F)(F)F)cnn12 [III-94] | 0.6 (≈ 1.44 µM) | 
29 | Cc1cc(-c2cccc(F)c2)nc2c(C(=O)N[C@@H](C)C3CC3)cnn12 [III-56] | 1.1 (≈ 3.25 µM) | 
30 | Cc1cc(-c2cccc(C(N)=O)n2)nc2c(C(=O)NC(C3CC3)C(F)(F)F)cnn12 (stereo not shown) [III-161] | 1 (≈ 2.39 µM) | 
31 | Cc1cc(-c2ccc3ocnc3c2)nc2c(C(=O)N[C@@H](C)C(F)(F)F)cnn12 [III-168] | 0.3 (≈ 0.771 µM) | 
32 | C#CC(NC(=O)c1cnn2c(C)cc(-c3cccc(Cl)c3)nc12)C(F)(F)F (stereo not shown) [III-99] | 0.2 (≈ 0.509 µM) | 
33 | COc1cc(C#N)cc(-c2cc(C)n3ncc(C(=O)N[C@@H](C)C4CC4)c3n2)c1 [III-129] | 0.02 (≈ 0.0533 µM) | 
34 | Cc1cc(Cl)nc2c(C(=O)NC(C3CC3)C(F)(F)F)cnn12 (stereo not shown) [III-45] | 10.2 (≈ 30.7 µM) | 
35 | Cc1cc(C)n2ncc(C(=O)NC(CC(C)C)C3CC3)c2n1 (stereo not shown) [III-5] | 25.7 (≈ 85.6 µM) | 
36 | Cc1cc(-c2nc3ccccc3[nH]2)nc2c(C(=O)NC(C3CC3)C(F)(F)F)cnn12 (stereo not shown) [III-311] | 0.6 (≈ 1.45 µM) | 
37 | Cc1oc(C#N)cc1-c1cc(C)n2ncc(C(=O)NC(C3CC3)C(F)(F)F)c2n1 (stereo not shown) [III-242] | 3.2 (≈ 7.93 µM) | 
38 | Cc1cc(N2CCOCC2)nc2c(C(=O)NC(C)C3CC3)cnn12 (stereo not shown) [III-58] | 20.1 (≈ 61 µM) | 
39 | Cc1cc(-c2cncc(C(F)(F)F)c2)nc2c(C(=O)N[C@H](C)C(F)(F)F)cnn12 [III-286] | 2.1 (≈ 5.03 µM) | 
40 | Cc1cc(-c2cccnc2)nc2c(C(=O)NC(C)(C)C3CC3)cnn12 [III-18] | 17.4 (≈ 51.9 µM) | 
41 | Cc1cc(-c2ccoc2)nc2c(C(=O)NC(C3CC3)C(F)(F)F)cnn12 (stereo not shown) [III-187] | 0.5 (≈ 1.37 µM) | 
42 | Cc1cc(-c2cccc3c2OCO3)nc2c(C(=O)N[C@@H](C)C3CC3)cnn12 [III-182] | 0.2 (≈ 0.549 µM) | 
43 | CO[C@H]1CC[C@@H]([C@@H](C)NC(=O)c2cnn3c(C)cc(C)nc23)CC1 [III-404] | 15.1 (≈ 45.7 µM) | 
44 | COc1ccc(F)cc1-c1cc(C)n2ncc(C(=O)N[C@H](C)C(F)(F)F)c2n1 [III-195] | 0.01 (≈ 0.0252 µM) | 
45 | Cc1cc(-c2cccnc2C#N)nc2c(C(=O)N[C@H](C3CC3)C(F)(F)F)cnn12 [III-365] | 1.8 (≈ 4.5 µM) | 
46 | Cc1cc(N2CCCCC2)n2ncc(C(=O)N[C@@H](C)C3CC3)c2n1 [III-30] | 4.7 (≈ 14.4 µM) | 
47 | COc1cccc(-c2cc(C)n3ncc(C(=O)NC(C)C(F)(F)F)c3n2)c1 (stereo not shown) [III-55] | 1.7 (≈ 4.49 µM) | 
48 | Cc1cncc(-c2cc(C)n3ncc(C(=O)N[C@@H](C4CC4)C(F)(F)F)c3n2)c1 [III-277] | 5.3 (≈ 13.6 µM) | 
49 | Cc1cc(-c2ccccc2C#N)nc2c(C(=O)NC(C3CC3)C(F)(F)F)cnn12 (stereo not shown) [III-211] | 0.2 (≈ 0.501 µM) | 
50 | Cc1cc(-c2cccc(F)c2C#N)nc2c(C(=O)N[C@@H](C)C(F)(F)F)cnn12 [III-399] | 0.1 (≈ 0.256 µM) | 
51 | Cc1cc(NC2CC2)nc2c(C(=O)NC(C3CC3)C3CC3)cnn12 [III-78] | 5.6 (≈ 17.2 µM) | 
52 | CO[C@H]1CC[C@H]([C@@H](C)NC(=O)c2cnn3c(C)cc(C)nc23)CC1 [III-403] | 21.4 (≈ 64.8 µM) | 

Row | Compound | solubility [µg/mL] | Compound Solubility in Water [µg/mL]
53 | Cc1cc(-c2cccc3c2OCO3)nc2c(C(=O)NC(C3CC3)C(F)(F)F)cnn12 (stereo not shown) [III-183] | 0.5 (≈ 1.2 µM) | 
54 | CNc1cc(C)n2ncc(C(=O)N[C@@H](C)C3CC3)c2n1 [III-6] | 23.8 (≈ 87.1 µM) | 
55 | Cc1cc(-c2cc(F)c3ocnc3c2)nc2c(C(=O)NC(C)C(F)(F)F)cnn12 (stereo not shown) [III-295] | 3.4 (≈ 8.35 µM) | 
56 | Cc1cc(-c2ccncc2)n2ncc(C(=O)N[C@@H](C)C3CC3)c2n1 [III-29] | 18.9 (≈ 58.8 µM) | 
57 | Cc1cc(-c2cnccc2F)nc2c(C(=O)NC(C3CC3)C(F)(F)F)cnn12 (stereo not shown) [III-124] | 1.9 (≈ 4.83 µM) | 
58 | Cc1cc(-c2ccc3scnc3c2)nc2c(C(=O)NC(C)C(F)(F)F)cnn12 (stereo not shown) [III-220] | 0.1 (≈ 0.247 µM) | 
59 | Cc1cc(-c2ccc3ocnc3c2)nc2c(C(=O)NC(C)C(F)(F)F)cnn12 (stereo not shown) [III-169] | 1.6 (≈ 4.11 µM) | 
60 | Cc1cc(-c2ccccc2C#N)nc2c(C(=O)N[C@@H](C)C(F)(F)F)cnn12 [III-213] | 0.6 (≈ 1.61 µM) | 
61 | Cc1cc(-c2ccc3ocnc3c2)nc2c(C(=O)NC(C3CC3)C(F)(F)F)cnn12 (stereo not shown) [III-108] |  | 0.3
62 | COc1cc(F)cc(-c2cc(C)n3ncc(C(=O)NC(C)C(F)(F)F)c3n2)c1 (stereo not shown) [III-410] | 0.06 (≈ 0.151 µM) | 
63 | Cc1cc(-c2ccc(F)o2)nc2c(C(=O)N[C@H](C)C(F)(F)F)cnn12 [III-334] | 2 (≈ 5.61 µM) | 
64 | CCc1cc(-c2ccccn2)nc2c(C(=O)NC(C)C(F)(F)F)cnn12 (stereo not shown) [III-52] | 2.4 (≈ 6.61 µM) | 
65 | Cc1cc(-c2nnc(C(C)C)o2)nc2c(C(=O)N[C@H](C3CC3)C(F)(F)F)cnn12 [III-391] | 0.3 (≈ 0.735 µM) | 
66 | COCc1cc(-c2ccc(F)cc2)nc2c(C(=O)NC(C)(C)C3CC3)cnn12 [III-47] | 0.3 (≈ 0.784 µM) | 
67 | Cc1cncc(-c2cc(C)n3ncc(C(=O)NC(C4CC4)C(F)(F)F)c3n2)c1 (stereo not shown) [III-275] | 2.6 (≈ 6.68 µM) | 
68 | Cc1cc(-c2sccc2C#N)nc2c(C(=O)NC(C3CC3)C(F)(F)F)cnn12 (stereo not shown) [III-189] | 5.1 (≈ 12.6 µM) | 
69 | COc1ccncc1-c1cc(C)n2ncc(C(=O)NC(C3CC3)C(F)(F)F)c2n1 (stereo not shown) [III-263] | 8.9 (≈ 22 µM) | 
70 | Cc1cc(-c2ccc3c(c2)ncn3C)nc2c(C(=O)NC(C3CC3)C(F)(F)F)cnn12 (stereo not shown) [III-303] | 3.2 (≈ 7.47 µM) | 
71 | COc1ccc(F)c(-c2cc(C)n3ncc(C(=O)N[C@@H](C)C(F)(F)F)c3n2)c1 [III-98] | 0.3 (≈ 0.757 µM) | 
72 | Cc1cc(-c2ccc3ncn(C)c3c2)nc2c(C(=O)NC(C3CC3)C(F)(F)F)cnn12 (stereo not shown) [III-304] | 0.4 (≈ 0.934 µM) | 
73 | Cc1cc(C)n2ncc(C(=O)NC(c3ccc(F)cc3)C(F)(F)F)c2n1 (stereo not shown) [III-184] | 1.1 (≈ 3 µM) | 
74 | Cc1cc(-c2ccccc2C#N)nc2c(C(=O)N[C@H](C)C(F)(F)F)cnn12 [III-212] | 0.7 (≈ 1.87 µM) | 
75 | Cc1cc(-c2cccc(Cl)c2)nc2c(C(=O)N[C@@H](C)C3CC3)cnn12 [III-65] | 0.9 (≈ 2.54 µM) | 
76 | Cc1cc(-c2ccc3ocnc3c2)nc2c(C(=O)N[C@@H](C3CC3)C(F)(F)F)cnn12 [III-110] | 0.4 (≈ 0.963 µM) | 

— patent US9840510B1, “Pyrazolo[1,5-a]pyrimidinyl carboxamide compounds and their use in the treatment of medical disorders” (Lysosomal Therapeutics Inc., priority 2016, dated 2017)
